Columns and labels:
[1] = biological target: T1, human JAK2 (Homo sapiens, UniProt O60674); assay: Alphascreen tyrosine kinase enzyme assay, JAK2 kinase domain; type: biochemical; conditions: read-out: JAK2 IC50_nM
T1 construct: The kinase domain of human JAK2 was amplified; GST (N); made in house; host or cells: Sf9 insect cells (baculovirus)
How it was run: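 JAK2 kinase domain expressed in baculovirus/Sf9 and glutathione-affinity purified. Compounds (final […]) pre-incubated 20 min with enzyme in 10 mM HEPES pH 7.5, MgCl2, NaCl, vanadate, 0.1% Tween 20.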

[2] = biological target: T2, BaF3 TELJAK2 cells (BafT_J2) (Homo sapiens, UniProt O60674); assay: Cellular screening, BaF3 TEL:JAK2 cells, Alamar Blue; type: cell-based; conditions: 40 hr, read-out: BafT_J2 IC50_nM
T2 construct: fused on or other part: TEL (ETV6) N-terminal part, coding nucleotides 1-487, serves as the oligomerising partner; It is fused through a Sal I site to the JAK2 kinase domain and expressed from pTRE2 in BaF3 cells bearing pTET-off; P41212 (Transcription factor ETV6)
T2 sequence (O60674 whole entry, change not shown, the tested form may be a part): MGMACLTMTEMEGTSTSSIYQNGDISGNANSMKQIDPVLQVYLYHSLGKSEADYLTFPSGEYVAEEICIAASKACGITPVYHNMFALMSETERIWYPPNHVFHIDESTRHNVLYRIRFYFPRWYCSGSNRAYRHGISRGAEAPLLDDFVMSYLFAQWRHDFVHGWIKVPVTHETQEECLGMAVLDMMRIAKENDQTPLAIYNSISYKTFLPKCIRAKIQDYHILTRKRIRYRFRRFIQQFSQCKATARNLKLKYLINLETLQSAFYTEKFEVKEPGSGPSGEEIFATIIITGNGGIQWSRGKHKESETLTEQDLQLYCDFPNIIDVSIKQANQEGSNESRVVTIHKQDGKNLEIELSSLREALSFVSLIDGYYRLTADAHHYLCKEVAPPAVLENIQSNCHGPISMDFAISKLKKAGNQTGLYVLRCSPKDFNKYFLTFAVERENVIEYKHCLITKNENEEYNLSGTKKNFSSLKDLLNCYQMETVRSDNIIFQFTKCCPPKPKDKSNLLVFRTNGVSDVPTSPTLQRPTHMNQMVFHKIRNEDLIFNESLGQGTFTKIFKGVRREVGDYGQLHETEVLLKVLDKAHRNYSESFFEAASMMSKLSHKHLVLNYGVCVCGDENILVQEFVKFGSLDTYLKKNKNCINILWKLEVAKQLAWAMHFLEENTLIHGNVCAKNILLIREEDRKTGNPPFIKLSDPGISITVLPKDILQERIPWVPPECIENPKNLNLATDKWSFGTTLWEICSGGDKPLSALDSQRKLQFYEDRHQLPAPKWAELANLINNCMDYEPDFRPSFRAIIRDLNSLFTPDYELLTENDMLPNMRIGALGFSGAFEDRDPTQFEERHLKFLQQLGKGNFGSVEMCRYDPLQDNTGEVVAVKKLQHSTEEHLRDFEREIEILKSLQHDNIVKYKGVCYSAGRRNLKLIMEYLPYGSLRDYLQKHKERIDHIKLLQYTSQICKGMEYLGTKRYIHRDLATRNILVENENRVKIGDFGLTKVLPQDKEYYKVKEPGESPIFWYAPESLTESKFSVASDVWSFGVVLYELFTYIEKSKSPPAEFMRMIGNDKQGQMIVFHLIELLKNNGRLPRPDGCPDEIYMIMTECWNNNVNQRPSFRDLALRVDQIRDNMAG
How it was run: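 Tet-off BaF3 cells carrying a TEL (nt 1-487)–JAK2 kinase-domain fusion, grown factor-independently in DMEM with 10% Tet-approved FBS without WEHI 3B medium. Compounds were diluted to 20 μM in screening plates, and cells (50,000–200,000 cell/mL at 1.1×) were incubated 40 hr at 37 °C, 5% CO2. Alamar Blue was then added for 4-6 hours; read at 544 nm.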

[3] = system: BaF3 wild-type cells; assay: Cellular screening, BaF3 wild-type cells, Alamar Blue; type: cell-based; conditions: Mus musculus, 40 hr, read-out: BAF3wt IC50_nM
How it was run: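 Compounds, screened from dilution plates at 20 μM, were added as 10× final stocks to cells grown in DMEM/10% FCS/10% WEHI 3B conditioned medium. Cells were seeded at 1.1× final (50,000–200,000 cells/mL) and incubated 40 hr at 37° C, 5% CO2. Viability was read at 544 nm after a further 4–6 hours with Alamar Blue.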

[4] = system: CTLL2; assay: Cellular screening, CTLL2 cells, Alamar Blue; type: cell-based; conditions: Mus musculus, CTLL-2, read-out: CTLL2 IC50_nM
How it was run: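 Viability is read with Alamar Blue at 544 nm, the dye added for the final 4-6 hours. Compounds were incubated for 40 hr with CTLL2 cells taken from late-log-phase culture, at 37° C in 5% CO2.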

T1 sequence (O60674 849-1124 limits assumed): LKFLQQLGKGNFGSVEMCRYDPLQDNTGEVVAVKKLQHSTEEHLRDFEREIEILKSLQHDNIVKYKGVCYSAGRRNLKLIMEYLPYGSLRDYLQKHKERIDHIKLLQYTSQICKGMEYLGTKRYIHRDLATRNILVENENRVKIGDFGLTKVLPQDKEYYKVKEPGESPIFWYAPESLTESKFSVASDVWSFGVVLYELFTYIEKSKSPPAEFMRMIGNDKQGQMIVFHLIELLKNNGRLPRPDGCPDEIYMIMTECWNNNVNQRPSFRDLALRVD

Row | Structure (SMILES) | IC50 [1] [µM] | GI50 [2] [µM] | IC50 [3] [µM] | IC50 [4] [µM]
1 | C=CC(=O)Nc1cccc(Nc2nccc(SC)n2)c1 [Compound 7, N-(3-(4-(methylthio)pyrimidin-2-ylao)phenyl)acrylamide] | > 1 | < 20 | < 20 | < 5
2 | Cc1cnc(Nc2ccc(O)cc2)nc1Sc1ccc(N)cc1 [Compound 191, 4-(4-(4-aophenylthio)-5-methylpyrimidin-2-ylao)phenol] | > 1 | < 5 | < 5 | < 5
3 | N#Cc1ncn(Cc2ccc(Sc3ccnc(Nc4ccc(N5CCOCC5)cc4)n3)cc2)c1N [Compound 202, 5-ao-1-(4-(2-(4-morpholinophenylao)pyrimidin-4-ylthio)benzyl)-1H-imidazole-4-carbonitrile] | < 1 | < 5 | < 20 | < 5
4 | Cc1cnc(Nc2ccc(N3CCOCC3)cc2)nc1Sc1ccc(NC(=O)CO)cc1 [Compound 229, 2-hydroxy-N-(4-(5-methyl-2-(4-morpholinophenylao)pyrimidin-4-ylthio)phenyl)acetamide] | < 1 | < 20 | < 20 | < 20
5 | Cc1cnc(Nc2ccc(N3CCOCC3)cc2)nc1Sc1ccc(C=O)cc1 [Compound 219, 4-(5-methyl-2-(4-morpholinophenylao)pyrimidin-4-ylthio)benzaldehyde] | > 1 | < 5 | < 5 | > 20
6 | N#Cc1c(N)ncn1Cc1ccc(Sc2ccnc(Nc3ccc(N4CCOCC4)cc3)n2)cc1 [Compound 203, 4-ao-1-(4-(2-(4-morpholinophenylao)pyrimidin-4-ylthio)benzyl)-1H-imidazole-5-carbonitrile] | < 1 | < 1 | < 1 | < 1
7 | Cc1cnc(Nc2ccc(N3CCOCC3)cc2)nc1Sc1ccc(C(C#N)N2CCOCC2)cc1 (stereo not drawn) [Compound 223, 2-(4-(5-methyl-2-(4-morpholinophenylao)pyrimidin-4-ylthio)phenyl)-2-morpholinoacetonitrile] | > 1 | < 5 | < 5 | < 5
8 | NC(=O)c1ccc(Sc2ccnc(Nc3ccc(N4CCOCC4)cc3)n2)cc1 [Compound 207, 4-(2-(4-morpholinophenylao)pyrimidin-4-ylthio)benzamide] | > 1 | > 20 |  | 
9 | Cc1cnc(Nc2ccc(N3CCOCC3)cc2)nc1Sc1ccc(N2C(=O)COCC2=O)cc1 [Compound 190, 4-(4-(5-methyl-2-(4-morpholinophenylao)pyrimidin-4-ylthio)phenyl)morpholine-3,5-dione] | < 0.5 | > 20 | > 20 | > 20
10 | Cc1cnc(Nc2ccc(N3CCOCC3)cc2)nc1Sc1ccc(CC#N)cc1 [Compound 222, 2-(4-(5-methyl-2-(4-morpholinophenylao)pyrimidin-4-ylthio)phenyl)acetonitrile] | > 1 | > 20 | > 20 | > 20
11 | c1cc(Sc2ccc(Cn3cncn3)cc2)nc(Nc2ccc(N3CCOCC3)cc2)n1 [Compound 204, 4-(4-((1H-1,2,4-triazol-1-yl)methyl)phenylthio)-N-(4-morpholinophenyl)pyrimidin-2-ae] | < 1 | < 5 | < 20 | < 20
12 | N#Cc1c(N)ncn1Cc1cccc(Sc2ccnc(Nc3ccc(N4CCOCC4)cc3)n2)c1 [Compound 199, 4-ao-1-(3-(2-(4-morpholinophenylao)pyrimidin-4-ylthio)benzyl)-1H-imiazole-5-carbonitrile] | < 1 | < 5 | < 20 | < 20
13 | CON(C)C(=O)c1ccc(Sc2nc(Nc3ccc(N4CCOCC4)cc3)ncc2C)cc1 [Compound 218, N-methoxy-N-methyl-4-(5-methyl-2-(4-morpholinophenylao)pyrimidin-4-ylthio)benzamide] | > 1 | > 20 | > 20 | > 20
14 | Cc1cnc(Nc2ccc(N3CCOCC3)cc2)nc1Sc1ccc(CO)cc1 [Compound 220, (4-(5-methyl-2-(4-morpholinophenylao)pyrimidin-4-ylthio)phenyl)methanol] | < 0.5 | < 5 | < 5 | < 1
15 | Cc1cnc(Nc2ccc(N3CCOCC3)cc2)nc1Sc1ccc(C(=O)N2CCCC2)cc1 [Compound 224, (4-(5-methyl-2-(4-morpholinophenylao)pyrimidin-4-ylthio)phenyl)(pyrrolidin-1-yl)methanone] | < 1 | > 20 | < 20 | > 20
16 | N#CCc1ccc(Sc2ccnc(Nc3ccc(N4CCOCC4)cc3)n2)cc1 [Compound 210, 2-(4-(2-(4-morpholinophenylao)pyrimidin-4-ylthio)phenyl)acetonitrile] | > 1 | > 20 | > 20 | > 20
17 | Cc1cnc(Nc2cccc(NS(C)(=O)=O)c2)nc1Sc1ccc(CO)cc1 [Compound 226, N-(3-(4-(4-(hydroxymethyl)phenylthio)-5-methylpyrimidin-2-ylao)phenyl)methanesulfonamide] | > 1 | < 5 |  | 
18 | Cc1cnc(Nc2ccc(N3CCOCC3)cc2)nc1Sc1cccc(CO)c1 [Compound 212, (3-(5-methyl-2-(4-morpholinophenylao)pyrimidin-4-ylthio)phenyl)methanol] | < 0.5 | > 20 | > 20 | > 20
19 | Cc1cnc(Nc2cccc(S)c2)nc1Sc1ccc(NC(=O)CCl)cc1 [Compound 195, 2-chloro-N-(4-(2-(3-mercaptophenylao)-5-methylpyrimidin-4-ylthio)phenyl)acetamide] | > 1 | > 20 | > 20 | > 20
20 | Cc1cnc(Nc2ccc(N3CCOCC3)cc2)nc1Sc1ccc(NC2CCOC2=O)cc1 (stereo not drawn) [Compound 228, 3-(4-(5-methyl-2-(4-morpholinophenylao)pyrimidin-4-ylthio)phenylao)dihydrofuran-2(3H)-one] | > 1 | > 20 | > 20 | > 20
21 | Cc1cnc(Nc2ccc(N3CCOCC3)cc2)nc1Sc1ccc(C(C#N)N2CCN(C)CC2)cc1 (stereo not drawn) [Compound 225, 2-(4-(5-methyl-2-(4-morpholinophenylao)pyrimidin-4-ylthio)phenyl)-2-(4-methylpiperazin-1-yl)acetonitrile] | > 1 | < 5 | < 5 | < 5
22 | Cc1cnc(Nc2ccc(N3CCOCC3)cc2)nc1Sc1ccc(N2CCSCC2=O)cc1 [Compound 197, 4-(4-(5-methyl-2-(4-morpholinophenylao)pyrimidin-4-ylthio)phenyl)thiomorpholin-3-one] | > 1 | > 20 | > 20 | > 20
